Data as given in paper PMC8592419 (PLoS ONE, 2021).
Converted amounts (≈) assume the structure as drawn. Like-named read-outs stand apart in the source and are kept apart here. Where a SMILES comes first, the peptide text is derived from it.

Tests used:
[1] = system: M. abscessus clinical isolate MAB05; experiment: In vitro susceptibility testing (DST), CLSI broth microdilution; type: cell-based, M. abscessus subsp. abscessus; design: key to DST profile, interpretation, Day 3 / DST profile, interpretation, Day 5 / DST profile, interpretation, Day 14: S, susceptible; I, intermediate; R, resistant; conditions: for MIC: Mycobacteroides abscessus
Procedure: (§1) Drug susceptibility testing (DST) was performed according to the Clinical and Laboratory Standards Institute (CLSI) guidelines M24-A2 [42] using the broth microdilution method to determine the minimum inhibitory concentration (MIC). […] Colonies were grown at an adjusted cell density to a 0.5 McFarland standard and further diluted to 5×10^5 CFU/ml. […] These were then incubated at 37°C for 3, 5 and 14 days. The MIC was defined as the concentration in which no visible growth was observed. The results were interpreted according to the guidelines of CLSI. Inducible resistance was inferred by changes in MIC values from being susceptible at day 3 to resistant at day 14.

[2] = system: M. abscessus clinical isolate MAB10; experiment: as above; type: cell-based, M. abscessus subsp. abscessus; design: key to DST profile, interpretation, Day 3 / DST profile, interpretation, Day 5 / DST profile, interpretation, Day 14: S, susceptible; I, intermediate; R, resistant; conditions: for MIC: Mycobacteroides abscessus
Procedure: as §1

[3] = system: M. abscessus clinical isolate MAB08; experiment: as above; type: cell-based, M. abscessus subsp. abscessus; design: key to DST profile, interpretation, Day 3 / DST profile, interpretation, Day 5 / DST profile, interpretation, Day 14: S, susceptible; I, intermediate; R, resistant; conditions: for MIC: Mycobacteroides abscessus
Procedure: as §1

[4] = system: M. abscessus clinical isolate MAB02; experiment: as above; type: cell-based, M. abscessus subsp. abscessus; design: key to DST profile, interpretation, Day 3 / DST profile, interpretation, Day 5 / DST profile, interpretation, Day 14: S, susceptible; I, intermediate; R, resistant; conditions: for MIC: Mycobacteroides abscessus
Procedure: as §1

[5] = system: M. abscessus clinical isolate MAB03; experiment: as above; type: cell-based, M. abscessus subsp. abscessus; design: key to DST profile, interpretation, Day 3 / DST profile, interpretation, Day 5 / DST profile, interpretation, Day 14: S, susceptible; I, intermediate; R, resistant; conditions: for MIC: Mycobacteroides abscessus
Procedure: as §1

[6] = system: M. abscessus clinical isolate MAB11; experiment: as above; type: cell-based, M. abscessus subsp. abscessus; design: key to DST profile, interpretation, Day 3 / DST profile, interpretation, Day 5 / DST profile, interpretation, Day 14: S, susceptible; I, intermediate; R, resistant; conditions: for MIC: Mycobacteroides abscessus
Procedure: as §1

[7] = system: M. abscessus clinical isolate MAB09; experiment: as above; type: cell-based, M. abscessus subsp. abscessus; design: key to DST profile, interpretation, Day 3 / DST profile, interpretation, Day 5 / DST profile, interpretation, Day 14: S, susceptible; I, intermediate; R, resistant; conditions: for MIC: Mycobacteroides abscessus
Procedure: as §1

[8] = system: M. abscessus clinical isolate MAB07; experiment: as above; type: cell-based, M. abscessus subsp. abscessus; design: key to DST profile, interpretation, Day 3 / DST profile, interpretation, Day 5 / DST profile, interpretation, Day 14: S, susceptible; I, intermediate; R, resistant; conditions: for MIC: Mycobacteroides abscessus
Procedure: as §1

[9] = system: M. abscessus clinical isolate MAB01; experiment: as above; type: cell-based, M. abscessus subsp. abscessus; design: key to DST profile, interpretation, Day 3 / DST profile, interpretation, Day 5 / DST profile, interpretation, Day 14: S, susceptible; I, intermediate; R, resistant; conditions: for MIC: Mycobacteroides abscessus
Procedure: as §1

[10] = system: M. abscessus clinical isolate MAB06; experiment: as above; type: cell-based, M. abscessus subsp. abscessus; design: key to DST profile, interpretation, Day 3 / DST profile, interpretation, Day 5 / DST profile, interpretation, Day 14: S, susceptible; I, intermediate; R, resistant; conditions: for MIC: Mycobacteroides abscessus
Procedure: as §1

[11] = system: M. abscessus clinical isolate MAB04; experiment: as above; type: cell-based, M. abscessus subsp. abscessus; design: key to DST profile, interpretation, Day 3 / DST profile, interpretation, Day 5 / DST profile, interpretation, Day 14: S, susceptible; I, intermediate; R, resistant; conditions: for MIC: Mycobacteroides abscessus
Procedure: as §1

[12] = not given; remark: listed apart in the source
[13] = 72 h, day 3, read-out: DST profile, MIC value, Day 3
[14] = 120 h, day 5, read-out: DST profile, MIC value, Day 5
[15] = 336 h, day 14, read-out: DST profile, MIC value, Day 14

## CC[C@H]1OC(=O)[C@H](C)[C@@H](O[C@H]2C[C@@](C)(OC)[C@@H](O)[C@H](C)O2)[C@H](C)[C@@H](O[C@@H]2O[C@H](C)C[C@H](N(C)C)[C@H]2O)[C@](C)(OC)C[C@@H](C)C(=O)[C@H](C)[C@@H](O)[C@]1(C)O [CLA, Clarithromycin]
[1]; [13]
  MIC: 4 µg/mL (≈ 5.35 µM)
[1]; [14]
  MIC: 8 µg/mL (≈ 10.7 µM)
[1]; [15]
  MIC: 16 µg/mL (≈ 21.4 µM)
[1]; day 3, CLSI interpretation
  DST profile, interpretation, Day 3: I
[1]; day 5, CLSI interpretation
  DST profile, interpretation, Day 5: R
[1]; day 14, CLSI interpretation
  DST profile, interpretation, Day 14: R
[2]; [13]
  MIC: 1020 µg/mL (≈ 1370 µM)
[2]; [14]
  MIC: 1020 µg/mL (≈ 1370 µM)
[2]; [15]
  MIC: 1020 µg/mL (≈ 1370 µM)
[2]; day 3, CLSI interpretation
  DST profile, interpretation, Day 3: R
[2]; day 5, CLSI interpretation
  DST profile, interpretation, Day 5: R
[2]; day 14, CLSI interpretation
  DST profile, interpretation, Day 14: R
[3]; [13]
  MIC: 1 µg/mL (≈ 1.34 µM)
[3]; [14]
  MIC: 2 µg/mL (≈ 2.67 µM)
[3]; [15]
  MIC: 8 µg/mL (≈ 10.7 µM)
[3]; day 3, CLSI interpretation
  DST profile, interpretation, Day 3: S
[3]; day 5, CLSI interpretation
  DST profile, interpretation, Day 5: S
[3]; day 14, CLSI interpretation
  DST profile, interpretation, Day 14: R
[4]; [13]
  MIC: 1 µg/mL (≈ 1.34 µM)
[4]; [14]
  MIC: 8 µg/mL (≈ 10.7 µM)
[4]; [15]
  MIC: 64 µg/mL (≈ 85.6 µM)
[4]; day 3, CLSI interpretation
  DST profile, interpretation, Day 3: S
[4]; day 5, CLSI interpretation
  DST profile, interpretation, Day 5: R
[4]; day 14, CLSI interpretation
  DST profile, interpretation, Day 14: R
[5]; [13]
  MIC: 8 µg/mL (≈ 10.7 µM)
[5]; [14]
  MIC: 8 µg/mL (≈ 10.7 µM)
[5]; [15]
  MIC: 8 µg/mL (≈ 10.7 µM)
[5]; day 3, CLSI interpretation
  DST profile, interpretation, Day 3: R
[5]; day 5, CLSI interpretation
  DST profile, interpretation, Day 5: R
[5]; day 14, CLSI interpretation
  DST profile, interpretation, Day 14: R
[6]; [13]
  MIC: 0.5 µg/mL (≈ 0.668 µM)
[6]; [14]
  MIC: 16 µg/mL (≈ 21.4 µM)
[6]; day 3, CLSI interpretation
  DST profile, interpretation, Day 3: S
[6]; day 5, CLSI interpretation
  DST profile, interpretation, Day 5: R
[6]; day 14, CLSI interpretation
  DST profile, interpretation, Day 14: R
[7]; [13]
  MIC: 0.25 µg/mL (≈ 0.334 µM)
[7]; [14]
  MIC: 8 µg/mL (≈ 10.7 µM)
[7]; [15]
  MIC: 8 µg/mL (≈ 10.7 µM)
[7]; day 3, CLSI interpretation
  DST profile, interpretation, Day 3: S
[7]; day 5, CLSI interpretation
  DST profile, interpretation, Day 5: R
[7]; day 14, CLSI interpretation
  DST profile, interpretation, Day 14: R
[8]; [13]
  MIC: 4 µg/mL (≈ 5.35 µM)
[8]; [14]
  MIC: 16 µg/mL (≈ 21.4 µM)
[8]; [15]
  MIC: 16 µg/mL (≈ 21.4 µM)
[8]; day 3, CLSI interpretation
  DST profile, interpretation, Day 3: I
[8]; day 5, CLSI interpretation
  DST profile, interpretation, Day 5: R
[8]; day 14, CLSI interpretation
  DST profile, interpretation, Day 14: R
[9]; [13]
  MIC: 1020 µg/mL (≈ 1370 µM)
[9]; [14]
  MIC: 1020 µg/mL (≈ 1370 µM)
[9]; [15]
  MIC: 1020 µg/mL (≈ 1370 µM)
[9]; day 3, CLSI interpretation
  DST profile, interpretation, Day 3: R
[9]; day 5, CLSI interpretation
  DST profile, interpretation, Day 5: R
[9]; day 14, CLSI interpretation
  DST profile, interpretation, Day 14: R
[10]; [13]
  MIC: 0.5 µg/mL (≈ 0.668 µM)
[10]; [14]
  MIC: 2 µg/mL (≈ 2.67 µM)
[10]; [15]
  MIC: 32 µg/mL (≈ 42.8 µM)
[10]; day 3, CLSI interpretation
  DST profile, interpretation, Day 3: S
[10]; day 5, CLSI interpretation
  DST profile, interpretation, Day 5: S
[10]; day 14, CLSI interpretation
  DST profile, interpretation, Day 14: R
[11]; [13]
  MIC: 2 µg/mL (≈ 2.67 µM)
[11]; [14]
  MIC: 16 µg/mL (≈ 21.4 µM)
[11]; [15]
  MIC: 64 µg/mL (≈ 85.6 µM)
[11]; day 3, CLSI interpretation
  DST profile, interpretation, Day 3: S
[11]; day 5, CLSI interpretation
  DST profile, interpretation, Day 5: R
[11]; day 14, CLSI interpretation
  DST profile, interpretation, Day 14: R

## CC[C@H](C)[C@H](NC(=O)[C@H](CCCCN)NC(=O)[C@H](CCCNC(=N)N)NC(=O)CNC(=O)[C@H](CC(C)C)NC(=O)[C@H](CO)NC(=O)[C@H](CCCNC(=N)N)NC(=O)[C@H](CC(C)C)NC(=O)CNC(=O)CN)C(=O)N[C@@H](CC(C)C)C(=O)N[C@@H](CCCNC(=N)N)C(=O)N[C@@H](C)C(=O)N[C@@H](Cc1c[nH]c2ccccc12)C(=O)N[C@@H](CCCCN)C(=O)N[C@@H](CCCCN)C(=O)N[C@@H](Cc1ccc(O)cc1)C(=O)O [S61] (H-GGLRSLGRKILRAWKKY-OH)
other
  MIC within 24 h, majority of isolates (10/16): < 50 µg/mL
[12]
  MIC after 3 days, MAB01 and MAB03: < 50 µg/mL
